{"source": "patent US20160271157A1", "about": "“BETA-CATENIN” (UCL BUSINESS PLC, priority 2013, published 2016)", "format_in_all_cases": "cell-based", "key": {"[1]": {"system": "Wnt induced calcium release", "assay": "Wnt induced [Ca2+]i release after preincubation with thapsigargin or membrane potential regulating compounds", "conditions": "PC3 cells, thapsigargin 5 μM for 15 min; Wnt5A 100 ng/ml, Wnt9B 200 ng/ml, Wnt10B 200 ng/ml", "method": "(§1) The imaging protocol was developed in the inventor's laboratory and has been described in detail, elsewhere (Wang at al., (2010) PLoS ONE 5, e10456). Briefly, 100000-200000 PC3, MCF7, 253J or Cos 7 cells were plated on 35 mm FluoroDish (WPI) and grown for 48 h; calcium indicators Fluo-4 (Invitrogen) and FuraRed (Invitrogen) at 1 ng/ml were added to FluoroDish containing only 1 ml of culture medium and incubated for 15-20 min at 37° C. The culture medium was removed and washed (×2) and replaced with 1 ml PBS. Live cell calcium Imaging was performed on an Olympus FluoView FV 1000 confocal microscope (Olympus KeyMed) equipped with a 20× dry objective (numerical aperture=0.75). Calcium indicators were excited with an argon laser line (488 nm) and emissions recorded in the green channel (500-560 nm) for Fluo-4 and red channel (600-700 nm) for FuraRed after addition of vehicle control (PBS) or Wnt X (30-600 ng/ml). Images were acquired every 1.1 or 2.2 seconds for up to 600-800s; image and data acquisition was performed using FluoView 1000 software (Olympus, UK). Fluorescent intensity was measured and data exported as a tab delimited file for further analysis using a spreadsheet. All imaging experiments were performed in duplicate; intracellular calcium at 100 ng/ml was measured in at least 3-12 different passages (passage numbers 25 to 37) of cell line for each Wnt ligand. Wnt 11 was tested in at least 5 different passages at 3 different concentrations. […]\nTo measure the effect of changes in membrane potential on [Ca^2+]i release using the protocol described above, in some experiments, external solution (PBS) was substituted with varying concentrations of KCl. In other experiments chemical inhibitors of K^+ channels such as TEA, CsCl or tolbutamide (Sigma-Aldrich) were added to the cells grown on FluoroDish, at 37° C., at least 5 min prior to addition of Wnt ligands.\nAfter image acquisition, regions of interest (ROI) were drawn over individual PC3 cells (up to 25) in a single frame and calcium intensity measurements were made using FluoView 1000 software (Olympus, UK). The measurements were exported as a tab delimited file into a spreadsheet for further analysis and Fluo4/Fura Red ratios were calculated. The waveform, a product of the ratio of Fluo4 and FuraRed over the period of measurement was used to measure the kinetics of the activation of [Ca^2+]i release in PC3 cells, in response to different Wnt ligands. The time constants (rise, dwell and fall times) were calculated by first fitting the Fluo4/FuraRed ratio to a single Gaussian function (Origin Lab Corp., MA); a lower (10%) and upper (90%) amplitude thresholding method was then used to calculate the time constants (s). Statistical significance was calculated using Mann Whitney U test."}, "PC3 cells [2]": {"system": "PC3 cells", "assay": "Scratch wound assay", "conditions": "wounded PC3 cells, ±Wnts and thapsigargin, vs control untreated cells", "method": "PC3 cells were grown in 24 well, ImageLock plates (Essen Bioscience, MI) to confluency and scratched using a wound maker device (Essen Bioscience, MI). Imaging (at 2 h intervals) and quantitation of wound width was performed as described earlier (Wang at al., (2010) PLoS ONE 5, e10456) using Incucyte (Essen Bioscience, MI). The rate of wound closure (±Wnts and thapsigargin) was calculated by fitting the line using linear regression function in Origin software (Origin Lab Corp., MA). Statistical significance of difference between the slopes for untreated and treated samples was calculated using F-test."}, "PC3 cells [3]": {"system": "PC3 cells", "assay": "Intranuclear calcium and membrane potential imaging (Fluo4 and FM4-64)", "conditions": "Wnt5A 100 ng/ml", "method": "as §1, with “[…])” for “KeyMed)”, “ligand.” for “ligand. Wnt 11 was tested in at least 5 different passages at 3 different concentrations.”"}}}
{"molecule": "C/C=C(/C)C(=O)O[C@H]1C(C)=C2[C@H]([C@@H]1OC(=O)CCCCCCC)[C@@](C)(OC(C)=O)C[C@H](OC(=O)CCC)[C@@]1(O)[C@H]2OC(=O)[C@@]1(C)O", "note": "[thapsigargin, reference compound]", "values": [{"measurement": "increase in [Ca2+]i in response to Wnt ligands (5A, 9B and 10B) after thapsigargin", "setting": "[1]", "value": "abolished"}, {"measurement": "rate of wound closure", "setting": "PC3 cells [2]", "value": "significant decrease"}]}
{"molecule": "Wnt5A: Recombinant Wnt peptide purchased from R&D systems (protein, UniProt P41221 62-380, looked up) Protein Wnt-5a: IIGAQPLCSQLAGLSQGQKKLCHLYQDHMQYIGEGAKTGIKECQYQFRHRRWNCSTVDNTSVFGRVMQIGSRETAFTYAVSAAGVVNAMSRACREGELSTCGCSRAARPKDLPRDWLWGGCGDNIDYGYRFAKEFVDARERERIHAKGSYESARILMNLHNNEAGRRTVYNLADVACKCHGVSGSCSLKTCWLQLADFRKVGDALKEKYDSAAAMRLNSRGKLVQVNSRFNSPTTQDLVYIDPSPDYCVRNESTGSLGTQGRLCNKTSEGMDGCELMCCGRGYDQFKTVQTERCHCKFHWCCYVKCKKCTEIVDQFVCK", "values": [{"measurement": "delay of increase in intranuclear Ca2+ after start of increase in [Ca2+]i", "setting": "PC3 cells [3]; Fluo4 and FM4", "value": "~33", "unit": "s"}, {"measurement": "FM4 signal (depolarization) of cell and nuclear membranes", "setting": "PC3 cells [3]; t=250s", "value": "increase in the FM4 signal in the cell and nuclear membranes"}]}
